In ChEMBL document CHEMBL4043199, “Synthesis and optimization of 4,5,6,7-tetrahydrooxazolo[4,5-c]pyridines as potent and orally-active metabotropic glutamate receptor 5 negative allosteric modulators” (Bioorg Med Chem Lett, 2017):
pIC50: −log10 of the molar value. Values after ≈ are worked out from the molar mass of the structure shown. One block for each compound: values may come before it.

Legend:
Cytochrome P450 3A4 = Cytochrome P450 3A4 (Homo sapiens, UniProt P08684); test: Inhibition of CYP3A4 in human liver microsomes using midazolam as substrate after 10 mins by LC-MS/MS analysis; type: ADME
Cytochrome P450 3A4, sequence (P08684 whole entry): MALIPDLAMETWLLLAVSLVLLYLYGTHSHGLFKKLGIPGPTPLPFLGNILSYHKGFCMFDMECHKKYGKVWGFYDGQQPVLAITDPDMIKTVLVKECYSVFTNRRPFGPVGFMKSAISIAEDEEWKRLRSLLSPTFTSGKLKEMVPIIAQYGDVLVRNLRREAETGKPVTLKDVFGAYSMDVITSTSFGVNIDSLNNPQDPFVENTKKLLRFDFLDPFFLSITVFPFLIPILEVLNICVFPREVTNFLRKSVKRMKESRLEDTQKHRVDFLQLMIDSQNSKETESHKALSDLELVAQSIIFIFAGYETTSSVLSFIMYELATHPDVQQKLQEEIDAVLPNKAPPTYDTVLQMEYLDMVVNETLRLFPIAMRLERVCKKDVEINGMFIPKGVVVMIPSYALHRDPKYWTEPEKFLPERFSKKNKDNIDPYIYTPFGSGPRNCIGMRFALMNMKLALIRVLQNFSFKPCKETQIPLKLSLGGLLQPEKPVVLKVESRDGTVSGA

[1] = […] of CYP450 in human liver microsomes as substrate after 10 mins by LC-MS/MS analysis; type: ADME
[2] = AUC in rat at 10 mg/kg, po; type: ADME, organism-based; conditions: in vivo
[3] = Metabolic stability in rat hepatic microsomes assessed as parent compound remaining at 1 uM after 30 mins in presence of NADPH by LC-MS/MS analysis relative to control; type: ADME, Microsome; conditions: liver microsomes, read-out: Stability
[4] = Oral bioavailability in monkey at 10 mg/kg; type: ADME, organism-based, Macaca mulatta; conditions: rhesus monkey, in vivo
[5] = Volume of distribution at steady state in rat at 1 mg/kg, iv after 24 hrs; type: ADME, organism-based; conditions: in vivo, read-out: Vdss
[6] = AUC in monkey at 10 mg/kg, po; type: ADME, organism-based, Macaca mulatta; conditions: rhesus monkey, in vivo
Cytochrome P450 2A6 = target: T1, Cytochrome P450 2A6 (Homo sapiens, UniProt P11509); test: Inhibition of CYP2A6 in human liver microsomes using coumarin as substrate after 10 mins by LC-MS/MS analysis; type: ADME
T1 sequence (P11509 whole entry): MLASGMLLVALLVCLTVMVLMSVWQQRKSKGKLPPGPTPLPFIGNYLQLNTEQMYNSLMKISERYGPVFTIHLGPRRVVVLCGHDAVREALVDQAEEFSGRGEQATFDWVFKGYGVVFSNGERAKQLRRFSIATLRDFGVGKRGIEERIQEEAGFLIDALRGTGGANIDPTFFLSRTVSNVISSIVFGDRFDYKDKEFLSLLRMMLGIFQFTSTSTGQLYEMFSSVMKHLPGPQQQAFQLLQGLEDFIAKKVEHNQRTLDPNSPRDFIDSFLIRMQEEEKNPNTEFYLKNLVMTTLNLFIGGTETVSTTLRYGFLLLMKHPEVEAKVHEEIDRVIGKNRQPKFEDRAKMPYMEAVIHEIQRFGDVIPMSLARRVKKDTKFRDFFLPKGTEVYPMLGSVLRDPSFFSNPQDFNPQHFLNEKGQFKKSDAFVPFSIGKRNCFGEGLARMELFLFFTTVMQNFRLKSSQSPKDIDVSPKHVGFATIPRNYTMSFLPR

[7] = Half life in monkey at 0.5 mg/kg, iv; type: ADME, organism-based, Macaca mulatta; conditions: rhesus monkey, in vivo
[8] = Cmax in monkey at 10 mg/kg, po; type: ADME, organism-based, Macaca mulatta; set-up: dose 10 mg/kg, route oral; conditions: rhesus monkey, in vivo
[9] = Half life in rat at 1 mg/kg, iv; type: ADME, organism-based; conditions: in vivo
Rattus norvegicus [10] = test: Ex vivo receptor occupancy at mGluR5 in Sprague-Dawley rat brain po administered daily for 4 days in presence of [3H]-MPEPy by liquid scintillation counting method; type: functional, organism-based
Rattus norvegicus [11] = test: Toxicity in rat at 100 mg/kg, po qd administered via gavage for 14 days; type: organism-based; conditions: in vivo, 336 h
[12] = AUC in monkey at 0.5 mg/kg, iv; type: ADME, organism-based, Macaca mulatta; conditions: rhesus monkey, in vivo
[13] = Metabolic stability in human hepatic microsomes assessed as parent compound remaining at 1 uM after 30 mins in presence of NADPH by LC-MS/MS analysis relative to control; type: ADME, Microsome; conditions: liver microsomes, read-out: Stability
Rattus norvegicus [14] = test: Oral bioavailability in rat at 10 mg/kg; type: ADME, organism-based; conditions: in vivo
Cytochrome P450 2C8 = target: T2, Cytochrome P450 2C8 (Homo sapiens, UniProt P10632); test: Inhibition of CYP2C8 in human liver microsomes using amodiaquine as substrate after 10 mins by LC-MS/MS analysis; type: ADME
T2 sequence (P10632 whole entry): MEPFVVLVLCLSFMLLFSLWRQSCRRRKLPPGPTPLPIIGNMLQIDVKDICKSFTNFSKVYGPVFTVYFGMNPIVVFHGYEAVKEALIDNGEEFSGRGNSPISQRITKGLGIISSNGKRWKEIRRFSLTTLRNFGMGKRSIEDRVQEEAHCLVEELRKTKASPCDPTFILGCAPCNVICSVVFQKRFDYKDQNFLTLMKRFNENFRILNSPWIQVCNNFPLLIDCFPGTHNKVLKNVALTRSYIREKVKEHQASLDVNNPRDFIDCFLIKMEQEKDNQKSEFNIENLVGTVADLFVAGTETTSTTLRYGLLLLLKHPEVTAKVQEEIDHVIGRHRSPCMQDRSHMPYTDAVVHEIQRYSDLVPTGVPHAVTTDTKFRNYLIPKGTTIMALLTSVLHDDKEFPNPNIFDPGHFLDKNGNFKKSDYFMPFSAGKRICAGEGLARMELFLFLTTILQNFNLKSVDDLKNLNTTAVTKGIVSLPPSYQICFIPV

[15] = Aqueous solubility of compound at pH 7.4; type: physicochemical; conditions: aqueous medium
Cytochrome P450 2C9 = Cytochrome P450 2C9 (Homo sapiens, UniProt P11712); test: Inhibition of CYP2C9 in human liver microsomes using diclofenac as substrate after 10 mins by LC-MS/MS analysis; type: ADME
Cytochrome P450 2C9, sequence (P11712 whole entry): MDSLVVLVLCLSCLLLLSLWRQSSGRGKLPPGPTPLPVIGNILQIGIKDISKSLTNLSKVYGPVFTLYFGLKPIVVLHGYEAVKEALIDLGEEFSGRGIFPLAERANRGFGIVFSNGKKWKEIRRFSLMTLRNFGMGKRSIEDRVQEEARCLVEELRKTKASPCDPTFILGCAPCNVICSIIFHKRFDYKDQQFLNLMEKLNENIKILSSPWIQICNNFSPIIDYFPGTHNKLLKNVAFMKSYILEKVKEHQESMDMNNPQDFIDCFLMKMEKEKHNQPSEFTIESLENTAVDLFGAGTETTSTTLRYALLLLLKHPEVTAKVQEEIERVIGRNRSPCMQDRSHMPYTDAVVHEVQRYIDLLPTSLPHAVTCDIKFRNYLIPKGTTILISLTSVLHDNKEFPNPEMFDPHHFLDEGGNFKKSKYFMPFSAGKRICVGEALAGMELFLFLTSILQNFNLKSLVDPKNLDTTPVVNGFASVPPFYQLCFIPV

Cytochrome P450 2C19 = Cytochrome P450 2C19 (Homo sapiens, UniProt P33261); test: Inhibition of CYP2C19 in human liver microsomes using (S)-mephenytoin as substrate after 10 mins by LC-MS/MS analysis; type: ADME
Cytochrome P450 2C19, sequence (P33261 whole entry): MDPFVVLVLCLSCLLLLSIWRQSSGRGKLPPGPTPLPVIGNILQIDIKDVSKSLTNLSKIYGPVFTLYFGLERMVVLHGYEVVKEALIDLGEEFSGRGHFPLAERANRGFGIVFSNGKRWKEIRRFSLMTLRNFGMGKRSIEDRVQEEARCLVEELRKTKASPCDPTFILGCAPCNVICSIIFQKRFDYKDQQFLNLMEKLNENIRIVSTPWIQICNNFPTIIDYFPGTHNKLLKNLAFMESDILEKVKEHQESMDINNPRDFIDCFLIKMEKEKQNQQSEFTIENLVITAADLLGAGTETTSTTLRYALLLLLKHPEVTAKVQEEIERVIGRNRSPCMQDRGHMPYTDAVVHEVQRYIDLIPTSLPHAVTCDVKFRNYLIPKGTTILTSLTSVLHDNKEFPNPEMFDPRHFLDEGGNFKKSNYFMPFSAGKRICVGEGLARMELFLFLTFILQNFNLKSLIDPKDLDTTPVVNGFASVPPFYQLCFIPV

[16] = Cmax in rat at 10 mg/kg, po; type: ADME, organism-based; set-up: dose 10 mg/kg, route oral; conditions: in vivo
[17] = target: Metabotropic glutamate receptor 5 (Homo sapiens, UniProt P41594); test: Negative allosteric modulation of human recombinant mGluR5 expressed in HEK293 cells assessed as inhibition of glutamate-induced calcium mobilization preincubated for 2 mins followed glutamate addition measured by fluorescence assay; type: functional, cell-based
Metabotropic glutamate receptor 5, sequence (P41594 whole entry): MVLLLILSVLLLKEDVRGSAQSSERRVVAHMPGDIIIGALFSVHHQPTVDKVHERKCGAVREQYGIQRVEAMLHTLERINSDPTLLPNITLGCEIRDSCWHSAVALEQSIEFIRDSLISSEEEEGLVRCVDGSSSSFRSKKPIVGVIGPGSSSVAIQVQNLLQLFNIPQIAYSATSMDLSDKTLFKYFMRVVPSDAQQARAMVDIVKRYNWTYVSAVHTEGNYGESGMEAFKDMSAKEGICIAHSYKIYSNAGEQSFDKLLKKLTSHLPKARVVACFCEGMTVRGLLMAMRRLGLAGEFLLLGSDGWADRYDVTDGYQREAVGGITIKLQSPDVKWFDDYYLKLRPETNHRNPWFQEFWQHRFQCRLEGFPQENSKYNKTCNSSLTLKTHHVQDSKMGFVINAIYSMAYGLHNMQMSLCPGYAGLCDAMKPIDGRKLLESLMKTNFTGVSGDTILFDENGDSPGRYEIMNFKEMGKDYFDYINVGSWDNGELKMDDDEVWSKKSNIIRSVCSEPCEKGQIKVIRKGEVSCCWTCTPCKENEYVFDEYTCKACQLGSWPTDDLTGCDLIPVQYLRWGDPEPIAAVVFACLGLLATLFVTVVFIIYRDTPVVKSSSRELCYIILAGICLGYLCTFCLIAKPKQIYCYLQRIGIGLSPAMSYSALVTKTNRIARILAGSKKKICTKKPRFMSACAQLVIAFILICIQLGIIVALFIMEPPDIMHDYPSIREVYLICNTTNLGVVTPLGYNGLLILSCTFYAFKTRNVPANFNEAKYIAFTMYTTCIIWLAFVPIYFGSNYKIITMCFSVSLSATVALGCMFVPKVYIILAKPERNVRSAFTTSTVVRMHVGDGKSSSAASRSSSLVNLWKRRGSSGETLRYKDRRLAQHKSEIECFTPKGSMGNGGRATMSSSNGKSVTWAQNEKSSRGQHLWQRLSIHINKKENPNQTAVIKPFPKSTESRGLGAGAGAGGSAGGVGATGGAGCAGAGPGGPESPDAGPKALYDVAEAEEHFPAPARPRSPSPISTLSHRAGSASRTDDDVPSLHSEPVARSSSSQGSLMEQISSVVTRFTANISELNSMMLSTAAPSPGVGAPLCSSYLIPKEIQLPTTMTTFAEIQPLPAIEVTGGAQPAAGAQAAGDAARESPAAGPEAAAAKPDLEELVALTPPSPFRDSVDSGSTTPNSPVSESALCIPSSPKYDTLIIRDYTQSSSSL

[18] = Clearance in rat at 1 mg/kg, iv after 24 hrs; type: ADME, organism-based; conditions: in vivo
[19] = AUC in rat at 1 mg/kg, iv; type: ADME, organism-based; conditions: in vivo
[20] = Clearance in monkey at 0.5 mg/kg, iv after 24 hrs; type: ADME, organism-based, Macaca mulatta; conditions: rhesus monkey, in vivo
[21] = Volume of distribution at steady state in monkey at 0.5 mg/kg, iv after 24 hrs; type: ADME, organism-based, Macaca mulatta; conditions: rhesus monkey, in vivo, read-out: Vdss
Cytochrome P450 2D6 = Cytochrome P450 2D6 (Homo sapiens, UniProt P10635); test: Inhibition of CYP2D6 in human liver microsomes using bufuralol as substrate after 10 mins by LC-MS/MS analysis; type: ADME
Cytochrome P450 2D6, sequence (P10635 whole entry): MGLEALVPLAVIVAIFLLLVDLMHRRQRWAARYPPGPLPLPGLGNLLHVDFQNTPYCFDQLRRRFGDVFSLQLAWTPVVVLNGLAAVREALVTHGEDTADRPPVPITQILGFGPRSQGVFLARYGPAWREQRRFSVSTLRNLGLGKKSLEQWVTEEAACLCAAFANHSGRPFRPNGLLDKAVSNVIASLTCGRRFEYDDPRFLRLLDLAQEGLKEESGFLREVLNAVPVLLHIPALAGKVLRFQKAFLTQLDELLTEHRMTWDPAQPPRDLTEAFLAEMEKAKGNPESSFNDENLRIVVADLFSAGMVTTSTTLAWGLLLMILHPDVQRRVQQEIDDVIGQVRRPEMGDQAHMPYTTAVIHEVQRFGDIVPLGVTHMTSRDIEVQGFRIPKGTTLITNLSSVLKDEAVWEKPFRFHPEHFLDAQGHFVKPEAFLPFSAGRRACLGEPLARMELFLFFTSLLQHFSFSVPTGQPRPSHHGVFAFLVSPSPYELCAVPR

Cytochrome P450 1A2 = target: T3, Cytochrome P450 1A2 (Homo sapiens, UniProt P05177); test: Inhibition of CYP1A2 in human liver microsomes using phenacetin as substrate after 10 mins by LC-MS/MS analysis; type: ADME
T3 sequence (P05177 whole entry): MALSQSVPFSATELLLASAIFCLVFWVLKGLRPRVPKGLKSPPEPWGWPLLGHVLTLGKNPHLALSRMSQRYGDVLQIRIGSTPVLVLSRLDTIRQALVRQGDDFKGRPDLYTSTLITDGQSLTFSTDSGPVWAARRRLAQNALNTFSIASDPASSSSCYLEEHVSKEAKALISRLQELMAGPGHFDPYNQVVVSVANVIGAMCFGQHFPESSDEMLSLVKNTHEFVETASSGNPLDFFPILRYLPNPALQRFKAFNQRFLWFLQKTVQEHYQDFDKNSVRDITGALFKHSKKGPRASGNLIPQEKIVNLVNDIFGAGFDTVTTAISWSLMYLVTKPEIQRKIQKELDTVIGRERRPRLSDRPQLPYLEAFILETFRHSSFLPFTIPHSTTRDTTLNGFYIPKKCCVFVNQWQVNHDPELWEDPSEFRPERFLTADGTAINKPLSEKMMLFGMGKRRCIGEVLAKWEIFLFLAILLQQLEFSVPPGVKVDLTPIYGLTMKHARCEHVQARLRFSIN

Salmonella typhimurium = test: Genotoxicity in Salmonella typhimurium by Ames test; type: toxicity; conditions: salmonella enterica subsp. enterica serovar typhimurium
[22] = Permeability of the compound at pH 7.4 by PAMPA; type: physicochemical; conditions: read-out: permeability

pIC50 (Cytochrome P450 3A4): < 4.30 | Activity [1]: Not Active | AUC [2]: 26100 ng·h/mL | remaining at 0.5 h, 1 µM [3]: 91 to 97% | bioavailability [4]: 114% | Vd [5]: 1.6 L/kg | AUC [6]: 69200 ng·h/mL | pIC50 (Cytochrome P450 2A6): < 4.30 | half-life [7]: 9.5 h | Cmax [8]: 4060 ng/mL | half-life [9]: 2 h | Activity (Rattus norvegicus [10]): Dose-dependent effect | AUC [12]: 3050 ng·h/mL | remaining at 0.5 h, 1 µM [13]: 91 to 97% | F (Rattus norvegicus [14]): 168% | pIC50 (Cytochrome P450 2C8): < 4.30 | solubility [15]: 23 µg/mL (≈ 67.4 µM) | pIC50 (Cytochrome P450 2C9): < 4.30 | pIC50 (Cytochrome P450 2C19): < 4.30 | Cmax [16]: 2070 ng/mL | pIC50 [17]: 7.20 | clearance [18]: 10.8 mL/min/kg | AUC [19]: 1550 ng·h/mL | clearance [20]: 2.8 mL/min/kg | Vd [21]: 2.2 L/kg | pIC50 (Cytochrome P450 2D6): < 4.30 | pIC50 (Cytochrome P450 1A2): < 4.30 | Papp [22]: 31.7 ×10⁻⁶ cm/s
SMILES: O=C(c1cccc(F)c1)N1CCc2oc(-c3ccc(F)cn3)nc2C1
Activity (Rattus norvegicus [11]): Non-Toxic | Activity (Salmonella typhimurium): Non-Toxic

pIC50 [17]: 6.76
SMILES: O=C(c1ccccc1)N1CCc2oc(-c3ccc(Br)cn3)nc2C1

remaining at 0.5 h, 1 µM [3]: > 91% | remaining at 0.5 h, 1 µM [13]: > 91% | pIC50 [17]: 7.05
SMILES: O=C(c1ccc(F)cc1)N1CCc2oc(-c3ccc(F)cn3)nc2C1

remaining at 0.5 h, 1 µM [3]: > 91% | remaining at 0.5 h, 1 µM [13]: > 91% | pIC50 [17]: 7.24
SMILES: O=C(c1ccccc1F)N1CCc2oc(-c3ccc(F)cn3)nc2C1

pIC50 [17]: 7.49
SMILES: O=C(c1ccccc1)N1CCc2oc(-c3ccc(Cl)cn3)nc2C1

pIC50 [17]: 6.63
SMILES: N#Cc1ccc(-c2nc3c(o2)CCN(C(=O)c2ccccc2)C3)nc1

remaining at 0.5 h, 1 µM [3]: > 91% | remaining at 0.5 h, 1 µM [13]: > 91% | pIC50 [17]: 7.34
SMILES: Cc1cc(Cl)cc(C(=O)N2CCc3oc(-c4ccc(F)cn4)nc3C2)c1
